Test results reported in US20250034151A1, “WEE1 INHIBITOR, PREPARATION THEREFOR, AND USE THEREOF” (JIANGSU TASLY DIYI PHARMACEUTICAL CO., LTD., priority 2022, published 2025).

Columns and labels:
CYP1A2 = target: T1, CYP1A2 (Homo sapiens, UniProt P05177); test: in vitro; details: CYP1A2 enzyme, pH 7.4, probe EOMCC (0.01 mM)
T1 sequence (P05177 1-516): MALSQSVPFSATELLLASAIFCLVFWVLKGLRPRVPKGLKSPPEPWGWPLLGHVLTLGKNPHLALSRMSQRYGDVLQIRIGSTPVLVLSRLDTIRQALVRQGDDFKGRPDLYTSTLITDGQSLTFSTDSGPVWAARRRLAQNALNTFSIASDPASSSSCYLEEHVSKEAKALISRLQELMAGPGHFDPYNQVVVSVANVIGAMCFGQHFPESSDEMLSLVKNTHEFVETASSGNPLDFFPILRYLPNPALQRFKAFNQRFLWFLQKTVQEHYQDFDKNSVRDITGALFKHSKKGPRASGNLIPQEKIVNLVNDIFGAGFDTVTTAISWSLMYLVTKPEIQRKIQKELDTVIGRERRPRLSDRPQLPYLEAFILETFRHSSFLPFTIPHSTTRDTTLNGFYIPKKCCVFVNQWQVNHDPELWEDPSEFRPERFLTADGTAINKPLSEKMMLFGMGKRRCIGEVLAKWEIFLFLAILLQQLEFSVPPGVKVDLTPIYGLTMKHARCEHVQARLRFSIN

Wee1 protein = target: T2, Wee1 protein (Homo sapiens, UniProt P30291); test: Binding of compound to Wee1 protein and Tracer 178 by TR-FRET (Wee1 kinase inhibitory activity); details: 15 nM WEE1, 50 nM Tracer 178, read-out: IC50 (inhibitory activity against Wee1 kinase)
T2 construct: purchased Thermo Fisher PR7373A
T2 sequence (P30291 whole entry): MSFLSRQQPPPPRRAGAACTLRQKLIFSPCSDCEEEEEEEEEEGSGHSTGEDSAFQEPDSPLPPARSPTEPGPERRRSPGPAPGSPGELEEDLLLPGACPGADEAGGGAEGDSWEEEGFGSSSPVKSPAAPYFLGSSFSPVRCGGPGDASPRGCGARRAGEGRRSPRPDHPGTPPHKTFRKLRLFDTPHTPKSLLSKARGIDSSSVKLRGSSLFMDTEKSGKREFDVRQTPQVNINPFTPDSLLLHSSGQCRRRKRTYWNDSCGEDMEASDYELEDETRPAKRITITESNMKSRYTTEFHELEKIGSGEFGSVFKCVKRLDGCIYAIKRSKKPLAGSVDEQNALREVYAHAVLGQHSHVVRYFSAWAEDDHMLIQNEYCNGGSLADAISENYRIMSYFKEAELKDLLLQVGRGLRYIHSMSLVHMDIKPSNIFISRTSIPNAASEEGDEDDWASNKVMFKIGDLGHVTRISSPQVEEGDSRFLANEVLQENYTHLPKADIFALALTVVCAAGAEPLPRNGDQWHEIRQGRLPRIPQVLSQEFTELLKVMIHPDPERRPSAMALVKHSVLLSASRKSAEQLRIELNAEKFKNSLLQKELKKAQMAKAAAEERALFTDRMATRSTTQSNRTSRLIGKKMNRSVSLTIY

SMILES	inhibition at 30 min, 1 µM (CYP1A2) [%]	inhibition at 30 min, 10 µM (CYP1A2) [%]	IC50 (Wee1 protein) [nM]
C=CCn1c(=O)c2cnc(Nc3ccc(N4CCN(C)CC4)cc3)nc2n1-c1cccc(C(C)(C)O)n1 [AZD1775]	20.2	17.5	–
C=CCn1c(=O)c2cnc(Nc3ccc(N4CC5CC(C4)N5C)cc3)nc2n1-c1cccc(C(C)(C)O)n1 [Compound 27]	–	–	5 to 10
